# Test results reported in patent US20170215422A1, “NOVEL CYCLIC DEPSIPEPTIDE DERIVATIVES AND HARMFUL ORGANISM CONTROL AGENTS COMPRISING THE SAME” (priority 2012, published 2017).
# System: adult of Ascaridiidae galli
# Assay: Anthelminticidal effect against adult of Ascaridiidae galli (in-vitro test)
# Conditions: 50 ppm; six adults per culture solution; 41° C.; 24 hr
# Description: The activity of compounds was evaluated based on a change in motility of adults of A. galli. Compounds of the present invention were dissolved in dimethyl sulfoxide, and the solution was added to a culture solution of A. galli that had been dissolved in a Ringer's solution to a compound concentration of 50 ppm. Six adults of A. galli were placed per culture solution, followed by culturing at 41° C.
row,SMILES,anthelminticidal activity (adults that stopped automatic motility)
1,CCCCCC1OC(=O)C(C)N(C)C(=O)C(CCCCC)OC(=O)C(C)N(C)C(=O)C(CCCCC)OC(=O)C(C)N(C)C(=O)C(CCCCC)OC(=O)CN(C)C1=O (stereo not drawn) [Compound 1],four insects that had stopped automatic motility
2,"CCCCCCC1OC(=O)CN(C)C(=O)C(CCCCC)OC(=O)C(C)N(C)C(=O)C(CCCCC)OC(=O)C(C)N(C)C(=O)C(CCCCC)OC(=O)C(C)N(C)C1=O [Compound 2, Cycro(-N-Me-L-Gly-(R)-Oct-N-Me-L-Ala-(R)Hep-N-Me-L-Ala-(R)-Hep-N-Me-L-Ala-(R)-Hep-)]",four insects that had stopped automatic motility
3,CCCCCC1OC(=O)C(C)N(C)C(=O)C(CCCC)OC(=O)C(C)N(C)C(=O)C(CCCCC)OC(=O)C(C)N(C)C(=O)C(CCCCC)OC(=O)C(C)N(C)C1=O (stereo not drawn) [Compound 6],four insects that had stopped automatic motility
4,CCCCCC1OC(=O)C(C)N(C)C(=O)C(CCCCC)OC(=O)C(CC)N(C)C(=O)C(CCCCC)OC(=O)C(C)N(C)C(=O)C(CCCCC)OC(=O)C(C)N(C)C1=O (stereo not drawn) [Compound 10],four insects that had stopped automatic motility
5,CCCCCC1OC(=O)C(C)N(C)C(=O)C(CCCCC)OC(=O)C(CCC)N(C)C(=O)C(CCCCC)OC(=O)C(C)N(C)C(=O)C(CCCCC)OC(=O)C(C)N(C)C1=O (stereo not drawn) [Compound 19],four insects that had stopped automatic motility
6,CCCCCC1OC(=O)C(C)N(C)C(=O)C(CCCCC)OC(=O)C(C)N(C)C(=O)C(CC(C)C)OC(=O)C(C)N(C)C(=O)C(CCCCC)OC(=O)C(C)N(C)C1=O (stereo not drawn) [Compound 61],four insects that had stopped automatic motility

# System: Musca domestica
# Assay: Control effect against Musca domestica adults (sucrose solution on swab)
# Type: in vivo
# Conditions: 50 ppm in 40% sucrose solution, 4 days
# Description: A chemical solution of the compound according to the present invention that had been adjusted with a 40% sucrose solution to a concentration of 50 ppm was adsorbed on a swab, and the swab was placed in a vial. Two adults of Musca domestica grown in a room were released, followed by standing in a room at a room temperature of 25° C. […] When two insects were in a dead or anguished state, the test compound was determined to be effective.
row,SMILES,insecticidal activity (two adults dead or anguished = effective)
1,CCCCCC1OC(=O)C(C)N(C)C(=O)C(CCCCC)OC(=O)C(C)N(C)C(=O)C(CCCCC)OC(=O)C(C)N(C)C(=O)C(CCCCC)OC(=O)CN(C)C1=O (stereo not drawn) [Compound 1],two insects were brought to a dead or anguished state
2,CCCCCCCCC1OC(=O)CN(C)C(=O)C(CCCCC)OC(=O)C(C)N(C)C(=O)C(CCCCC)OC(=O)C(C)N(C)C(=O)C(CCCCC)OC(=O)C(C)N(C)C1=O (stereo not drawn) [Compound 4],two insects were brought to a dead or anguished state
3,CCCCCCCCC1OC(=O)C(C)N(C)C(=O)C(CCCCC)OC(=O)C(C)N(C)C(=O)C(CCCCC)OC(=O)C(C)N(C)C(=O)C(CCCCC)OC(=O)C(C)N(C)C1=O (stereo not drawn) [Compound 8],two insects were brought to a dead or anguished state
4,CCCCCCCCCC1OC(=O)C(C)N(C)C(=O)C(CCCCC)OC(=O)C(C)N(C)C(=O)C(CCCCC)OC(=O)C(C)N(C)C(=O)C(CCCCC)OC(=O)C(C)N(C)C1=O (stereo not drawn) [Compound 9],two insects were brought to a dead or anguished state
5,CCCCCCC1OC(=O)C(CC)N(C)C(=O)C(CCCCC)OC(=O)C(C)N(C)C(=O)C(CCCCC)OC(=O)C(C)N(C)C(=O)C(CCCCC)OC(=O)C(C)N(C)C1=O (stereo not drawn) [Compound 11],two insects were brought to a dead or anguished state
6,CCCCCCCC1OC(=O)C(CC)N(C)C(=O)C(CCCCC)OC(=O)C(C)N(C)C(=O)C(CCCCC)OC(=O)C(C)N(C)C(=O)C(CCCCC)OC(=O)C(C)N(C)C1=O (stereo not drawn) [Compound 12],two insects were brought to a dead or anguished state
7,CCCCCCCCC1OC(=O)C(CC)N(C)C(=O)C(CCCCC)OC(=O)C(C)N(C)C(=O)C(CCCCC)OC(=O)C(C)N(C)C(=O)C(CCCCC)OC(=O)C(C)N(C)C1=O (stereo not drawn) [Compound 13],two insects were brought to a dead or anguished state
8,CCCCCC1OC(=O)C(C)N(C)C(=O)C(CCCCC)OC(=O)C(CCCC)N(C)C(=O)C(CCCCC)OC(=O)C(C)N(C)C(=O)C(CCCCC)OC(=O)C(C)N(C)C1=O (stereo not drawn) [Compound 15],two insects were brought to a dead or anguished state
9,"CCCCCCCC1OC(=O)C(CCCC)N(C)C(=O)C(CCCCC)OC(=O)C(C)N(C)C(=O)C(CCCCC)OC(=O)C(C)N(C)C(=O)C(CCCCC)OC(=O)C(C)N(C)C1=O [Compound 16, Cycro(-N-Me-L-Nle (R)-Nna-N-Me-L-Ala-(R)-Hep-N-Me-L-Ala-(R)-Hep-N-Me-L-Ala-(R)-Hep-)]",two insects were brought to a dead or anguished state
10,CCCCCCCC1OC(=O)C(CCC)N(C)C(=O)C(CCCCC)OC(=O)C(C)N(C)C(=O)C(CCCCC)OC(=O)C(C)N(C)C(=O)C(CCCCC)OC(=O)C(C)N(C)C1=O (stereo not drawn) [Compound 21],two insects were brought to a dead or anguished state
11,CCCCCCCCC1OC(=O)C(CCC)N(C)C(=O)C(CCCCC)OC(=O)C(C)N(C)C(=O)C(CCCCC)OC(=O)C(C)N(C)C(=O)C(CCCCC)OC(=O)C(C)N(C)C1=O (stereo not drawn) [Compound 22],two insects were brought to a dead or anguished state
12,CCCCCCCCCC1OC(=O)C(CCC)N(C)C(=O)C(CCCCC)OC(=O)C(C)N(C)C(=O)C(CCCCC)OC(=O)C(C)N(C)C(=O)C(CCCCC)OC(=O)C(C)N(C)C1=O (stereo not drawn) [Compound 23],two insects were brought to a dead or anguished state
13,CCCCCCC[C@H]1OC(=O)[C@H](CC(C)C)N(C)C(=O)[C@@H](CCCCC)OC(=O)[C@H](C)N(C)C(=O)[C@H](CCCCC)OC(=O)[C@H](C)N(C)C(=O)[C@@H](CCCCC)OC(=O)[C@H](C)N(C)C1=O [Compound 28],two insects were brought to a dead or anguished state
14,CCCCCCCC[C@H]1OC(=O)[C@H](CC(C)C)N(C)C(=O)[C@@H](CCCCC)OC(=O)[C@H](C)N(C)C(=O)[C@H](CCCCC)OC(=O)[C@H](C)N(C)C(=O)[C@@H](CCCCC)OC(=O)[C@H](C)N(C)C1=O [Compound 29],two insects were brought to a dead or anguished state
15,CCCCCCCC1OC(=O)C(CC(C)C)N(C)C(=O)C(CCCCC)OC(=O)CN(C)C(=O)C(CCCCC)OC(=O)CN(C)C(=O)C(CCCCC)OC(=O)CN(C)C1=O (stereo not drawn) [Compound 32],two insects were brought to a dead or anguished state
16,CCCCCC1OC(=O)C(CC(C)C)N(C)C(=O)C(CCCCC)OC(=O)C(CC(C)C)N(C)C(=O)C(CCCCC)OC(=O)C(CC(C)C)N(C)C(=O)C(CCCCC)OC(=O)CN(C)C1=O (stereo not drawn) [Compound 33],two insects were brought to a dead or anguished state
17,"CCCCC[C@H]1OC(=O)CN(C)C(=O)[C@@H](CCCCC)OC(=O)[C@H](CC(C)C)N(C)C(=O)[C@@H](CCCCC)OC(=O)[C@H](CC(C)C)N(C)C(=O)[C@@H](CCCCC)OC(=O)CN(C)C1=O [Compound 47, Cycro(-N-Me-L-Gly-(R)-Hep-N-Me-L-Gly-(R)-Hep-N-Me-L-Leu-(R)-Hep-N-Me-L-Leu-(R)-Hep-)]",two insects were brought to a dead or anguished state
18,CCCCCC1OC(=O)C(CC(C)C)N(C)C(=O)C(CCCCC)OC(=O)C(CCC)N(C)C(=O)C(CCCCC)OC(=O)C(CCC)N(C)C(=O)C(CCCCC)OC(=O)CN(C)C1=O (stereo not drawn) [Compound 60],two insects were brought to a dead or anguished state
